# Reference: ChEMBL document CHEMBL3044870, “Effect of clomazone on various market classes of dry beans” (Crop Prot, 2007)
# Columns and labels:
# Type in all cases: organism-based
# Conditions in all cases: in vivo, other
# Phaseolus vulgaris [1] = experiment: Phytotoxicity against Phaseolus vulgaris (black beans) assessed as yield at 1116 g a.i./ha applied pre-emergence 1 to 2 days post-planting measured on day 42 post-emergence (reference value: 3.6 tons/ha)
# Phaseolus vulgaris [2] = experiment: Phytotoxicity against Phaseolus vulgaris (black beans) assessed as visual crop injury at 2232 g a.i./ha applied pre-emergence 1 to 2 days post-planting measured on day 14 post-emergence relative to control
# Phaseolus vulgaris [3] = experiment: Phytotoxicity against Phaseolus vulgaris (otebo beans) assessed as shoot dry weight at 1116 g a.i./ha applied pre-emergence 1 to 2 days post-planting measured on day 42 post-emergence (reference value: 188 g/m)
# Phaseolus vulgaris [4] = experiment: Phytotoxicity against Phaseolus vulgaris (black beans) assessed as shoot dry weight at 1116 g a.i./ha applied pre-emergence 1 to 2 days post-planting measured on day 42 post-emergence (reference value: 165 g/m)
# Phaseolus vulgaris [5] = experiment: Phytotoxicity against Phaseolus vulgaris (brown beans) assessed as yield at 2232 g a.i./ha applied pre-emergence 1 to 2 days post-planting measured on day 42 post-emergence (reference value: 2.5 tons/ha)
# Phaseolus vulgaris [6] = experiment: Phytotoxicity against Phaseolus vulgaris (dry beans) assessed as visual crop injury at 1116 g a.i./ha applied pre-emergence 1 to 2 days post-planting measured on day 28 post-emergence relative to control
# Phaseolus vulgaris [7] = experiment: Phytotoxicity against Phaseolus vulgaris (brown beans) assessed as shoot dry weight at 2232 g a.i./ha applied pre-emergence 1 to 2 days post-planting measured on day 42 post-emergence (reference value: 149 g/m)
# Phaseolus vulgaris [8] = experiment: Phytotoxicity against Phaseolus vulgaris (brown beans) assessed as visual crop injury at 2232 g a.i./ha applied pre-emergence 1 to 2 days post-planting measured on day 14 post-emergence relative to control
structure (smiles),measurement,setting,value
CC1(C)CON(Cc2ccccc2Cl)C1=O [CLOMAZONE],Crop_yield,Phaseolus vulgaris [1],3.3 tons/ha
same,Activity,Phaseolus vulgaris [2],13%
same,Activity,Phaseolus vulgaris [3],189 g/m
same,Activity,Phaseolus vulgaris [4],167 g/m
same,Crop_yield,Phaseolus vulgaris [5],2.7 tons/ha
same,Activity,Phaseolus vulgaris [6],1%
same,Activity,Phaseolus vulgaris [7],143 g/m
same,Activity,Phaseolus vulgaris [8],8%
